According to patent publication US20220281848A1, “PYRAZOLE-SUBSTITUTED PYRROLIDINONES AS HERBICIDES” (FMC Corporation, priority 2019, published 2022):

Test system: plants
Test: Test D pre-emergence, other plants of Tables D1 and D3
Type: in vivo
Conditions: pre-emergence, 100=total damage, 0=no damage; for ALOMY damage rating / AVEFA damage rating / BEAVA damage rating / BROTE damage rating / BRSNN damage rating / CHEAL damage rating / GALAP damage rating / HORVW damage rating / KCHSC damage rating / LOLPE damage rating / POAAN damage rating / SINAR damage rating / STEME damage rating / VERPE damage rating: 20 DAA
How it was run: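 Damage was rated visually from 0 (none) to 100 (total), at 20 DAA for pre-emergence and 15 d for post-emergence. Plants grew from safener-treated seed in a glasshouse at 24/18° C. or 20/16° C. day/night, 65% humidity, watered twice daily.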

CN1CC(c2cc(Cl)n(C)n2)C(C(=O)Nc2ccc(F)c(F)c2F)C1=O (racemic) [Compound 31]
10: POAAN damage rating (Rates 500) | STEME damage rating (Rates 500) | damage to plant, AVEFA (rate 500, 20 DAA) | damage to plant, BROTE (rate 500, 20 DAA)
0: ALOMY damage rating (Rates 15) | ALOMY damage rating (Rates 30) | AVEFA damage rating (Rates 15) | AVEFA damage rating (Rates 30) | BEAVA damage rating (Rates 15) | BEAVA damage rating (Rates 30) | BROTE damage rating (Rates 15) | BROTE damage rating (Rates 30) | BRSNN damage rating (Rates 15) | BRSNN damage rating (Rates 30) | CHEAL damage rating (Rates 15) | CHEAL damage rating (Rates 30) | CHEAL damage rating (Rates 60) | CHEAL damage rating (Rates 130) | CHEAL damage rating (Rates 250) | GALAP damage rating (Rates 15) | GALAP damage rating (Rates 30) | GALAP damage rating (Rates 60) | GALAP damage rating (Rates 130) | GALAP damage rating (Rates 250) | GALAP damage rating (Rates 500) | HORVW damage rating (Rates 15) | HORVW damage rating (Rates 30) | KCHSC damage rating (Rates 15) | KCHSC damage rating (Rates 30) | KCHSC damage rating (Rates 60) | KCHSC damage rating (Rates 130) | KCHSC damage rating (Rates 250) | KCHSC damage rating (Rates 500) | LOLPE damage rating (Rates 15) | LOLPE damage rating (Rates 30) | LOLPE damage rating (Rates 60) | LOLPE damage rating (Rates 130) | LOLPE damage rating (Rates 250) | LOLPE damage rating (Rates 500) | POAAN damage rating (Rates 15) | POAAN damage rating (Rates 30) | POAAN damage rating (Rates 60) | POAAN damage rating (Rates 130) | POAAN damage rating (Rates 250) | SINAR damage rating (Rates 15) | SINAR damage rating (Rates 30) | STEME damage rating (Rates 15) | STEME damage rating (Rates 30) | STEME damage rating (Rates 60) | STEME damage rating (Rates 130) | STEME damage rating (Rates 250) | VERPE damage rating (Rates 15) | VERPE damage rating (Rates 30) | VERPE damage rating (Rates 60) | VERPE damage rating (Rates 130) | damage to plant, ALOMY (rate 60, 20 DAA) | damage to plant, AVEFA (rate 60, 20 DAA) | damage to plant, BEAVA (rate 60, 20 DAA) | damage to plant, BROTE (rate 60, 20 DAA) | damage to plant, BRSNN (rate 60, 20 DAA) | damage to plant, HORVW (rate 60, 20 DAA) | damage to plant, SINAR (rate 60, 20 DAA) | damage to plant, ALOMY (rate 130, 20 DAA) | damage to plant, AVEFA (rate 130, 20 DAA) | damage to plant, BEAVA (rate 130, 20 DAA) | damage to plant, BROTE (rate 130, 20 DAA) | damage to plant, BRSNN (rate 130, 20 DAA) | damage to plant, HORVW (rate 130, 20 DAA) | damage to plant, SINAR (rate 130, 20 DAA) | damage to plant, ALOMY (rate 250, 20 DAA) | damage to plant, AVEFA (rate 250, 20 DAA) | damage to plant, BEAVA (rate 250, 20 DAA) | damage to plant, BROTE (rate 250, 20 DAA) | damage to plant, BRSNN (rate 250, 20 DAA) | damage to plant, HORVW (rate 250, 20 DAA) | damage to plant, SINAR (rate 250, 20 DAA) | damage to plant, ALOMY (rate 500, 20 DAA) | damage to plant, BEAVA (rate 500, 20 DAA) | damage to plant, BRSNN (rate 500, 20 DAA)
30: VERPE damage rating (Rates 250)
50: VERPE damage rating (Rates 500)
20: CHEAL damage rating (Rates 500) | damage to plant, HORVW (rate 500, 20 DAA) | damage to plant, SINAR (rate 500, 20 DAA)
